In patent publication US11919901B2 (Syndax Pharmaceuticals, Inc., priority 2021, dated 2024) one finds Ki data, which are given here for 20 molecules.

This assay addresses Menin-MLL (Homo sapiens (Human), UniProt O00255). The assay is described as follows: Determination of binding constants (Ki) to Menin-MLL (HTRF). The conditions noted are these: HTRF; 0.25 nM H-FL-Menin, 3.2 nM FITC-MLL-4-43, 24 hr incubation; read-out: Menin-MLL Ki HTRF Assay: Ki. (Time-resolved FRET reads energy transfer from a long-lived donor to a nearby acceptor.)

Molecules are shown by their SMILES. Bounds are passed on as bounds.

Sequence of Menin-MLL (O00255 whole entry): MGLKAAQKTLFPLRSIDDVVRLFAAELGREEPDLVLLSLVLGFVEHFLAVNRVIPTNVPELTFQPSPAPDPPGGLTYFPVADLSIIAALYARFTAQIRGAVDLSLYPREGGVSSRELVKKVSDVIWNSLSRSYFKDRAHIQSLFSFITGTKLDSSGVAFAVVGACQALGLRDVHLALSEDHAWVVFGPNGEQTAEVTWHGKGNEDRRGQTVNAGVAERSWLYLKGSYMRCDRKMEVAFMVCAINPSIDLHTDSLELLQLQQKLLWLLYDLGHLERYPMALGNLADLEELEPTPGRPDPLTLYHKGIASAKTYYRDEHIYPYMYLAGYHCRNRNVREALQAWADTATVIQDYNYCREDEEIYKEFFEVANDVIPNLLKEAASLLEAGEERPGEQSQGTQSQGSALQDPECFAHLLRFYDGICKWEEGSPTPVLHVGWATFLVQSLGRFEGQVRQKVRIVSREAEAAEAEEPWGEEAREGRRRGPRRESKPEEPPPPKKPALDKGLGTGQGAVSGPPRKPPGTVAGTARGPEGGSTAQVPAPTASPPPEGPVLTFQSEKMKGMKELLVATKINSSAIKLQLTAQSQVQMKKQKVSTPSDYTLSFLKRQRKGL

By Ki is commonly meant the dissociation constant of the complex between target and ligand, obtained from inhibition or displacement. On to `C[C@@H]1COC[C@H](C)N1C(=O)c1cc(F)ccc1Oc1cncnc1N1CC2(CCN(C[C@@H]3CC[C@@H](NS(=O)(=O)N(C)C)CO3)CC2)C1` [Compound 160, {[(3R,6S)-6-{[2-(5-{2-[(3R,5S)-3,5-Dimethylmorpholine-4-carbonyl]-4-fluorophenoxy}pyrimidin-4-yl)-2,7-diazaspiro[3.5]nonan-7-yl]methyl}oxan-3-yl]sulfamoyl}dimethylamine], for which the Ki was under 1 nM.
For `C[C@@H]1COC[C@H](C)N1C(=O)c1cc(F)ccc1Oc1cncnc1N1CC2(CCN(C[C@@H]3CC[C@@H](NS(=O)(=O)NCC(F)(F)F)CO3)CC2)C1` [Compound 162, {[(3R,6S)-6-{[2-(5-{2-[(3R,5S)-3,5-Dimethylmorpholine-4-carbonyl]-4-fluorophenoxy}pyrimidin-4-yl)-2,7-diazaspiro[3.5]nonan-7-yl]methyl}oxan-3-yl]sulfamoyl}(2,2,2-trifluoroethyl)amine], the Ki is under 1 nM.
For `C[C@@H]1COC[C@H](C)N1C(=O)c1cc(F)ccc1Oc1cncnc1N1CC2(CCN(C[C@@H]3CC[C@@H](NS(=O)(=O)NC4CC4)CO3)CC2)C1` [Compound 163, N-[(3R,6S)-6-{[2-(5-{2-[(3R,5S)-3,5-Dimethylmorpholine-4-carbonyl]-4-fluorophenoxy}pyrimidin-4-yl)-2,7-diazaspiro[3.5]nonan-7-yl]methyl}oxan-3-yl](cyclopropylamino)sulfonamide], the Ki was under 1 nM.
On to `CC(C)N(C(=O)c1cc(F)ccc1Oc1cncnc1N1CC2(CCN(C[C@@H]3CC[C@@H](NS(C)(=O)=O)CO3)CC2)C1)[C@@H]1CCOC1` [Compound 166, 5-Fluoro-N-isopropyl-2-((4-(7-(((2S,5R)-5-(methylsulfonamido)tetrahydro-2H-pyran-2-yl)methyl)-2,7-diazaspiro[3.5]nonan-2-yl)pyrimidin-5-yl)oxy)-N-((R)-tetrahydrofuran-3-yl)benzamide], for which the Ki is under 1 nM.
As for `CC(C)N(C(=O)c1cc(F)ccc1Oc1cncnc1N1CC2(CCN(C[C@@H]3CC[C@@H](NS(=O)(=O)N4CCC4)CO3)CC2)C1)[C@@H]1CCOC1` [Compound 168, 2-((4-(7-(((2S,5R)-5-(Azetidine-1-sulfonamido)tetrahydro-2H-pyran-2-yl)methyl)-2,7-diazaspiro[3.5]nonan-2-yl)pyrimidin-5-yl)oxy)-5-fluoro-N-isopropyl-N-((R)-tetrahydrofuran-3-yl)benzamide], the Ki is under 1 nM.
Then `CC(C)N(C(=O)c1cc(F)ccc1Oc1cncnc1N1CC2(CCN(C[C@@H]3CC[C@@H](NS(=O)(=O)N4CCCC4)CO3)CC2)C1)[C@@H]1CCOC1` [Compound 169, 5-Fluoro-N-isopropyl-2-((4-(7-(((2S,5R)-5-(pyrrolidine-1-sulfonamido)tetrahydro-2H-pyran-2-yl)methyl)-2,7-diazaspiro[3.5]nonan-2-yl)pyrimidin-5-yl)oxy)-N-((R)-tetrahydrofuran-3-yl)benzamide], with under 1 nM; and `CCN(C)S(=O)(=O)N[C@@H]1CC[C@@H](CN2CCC3(CC2)CN(c2ncncc2Oc2ccc(F)cc2C(=O)N(C(C)C)[C@@H]2CCOC2)C3)OC1` [Compound 170, 2-((4-(7-(((2S,5R)-5-((N-Ethyl-N-methylsulfamoyl)amino)tetrahydro-2H-pyran-2-yl)methyl)-2,7-diazaspiro[3.5]nonan-2-yl)pyrimidin-5-yl)oxy)-5-fluoro-N-isopropyl-N-((R)-tetrahydrofuran-3-yl)benzamide], with under 1 nM.
Then `CC(C)N(C(=O)c1cc(F)ccc1Oc1cncnc1N1CC2(CCN(C[C@@H]3CC[C@@H](NS(=O)(=O)NCC(F)(F)F)CO3)CC2)C1)[C@@H]1CCOC1` [Compound 171, 5-Fluoro-N-isopropyl-N-((R)-tetrahydrofuran-3-yl)-2-((4-(7-(((2S,5R)-5-((N-(2,2,2-trifluoroethyl)sulfamoyl)amino)tetrahydro-2H-pyran-2-yl)methyl)-2,7-diazaspiro[3.5]nonan-2-yl)pyrimidin-5-yl)oxy)benzamide], with under 1 nM.
Then `CCNS(=O)(=O)N[C@@H]1CC[C@@H](CN2CCC3(CC2)CN(c2ncncc2Oc2ccc(F)cc2C(=O)N(C(C)C)[C@@H]2CCOC2)C3)OC1` [Compound 172, 2-((4-(7-(((2S,5R)-5-((N-ethylsulfamoyl)amino)tetrahydro-2H-pyran-2-yl)methyl)-2,7-diazaspiro[3.5]nonan-2-yl)pyrimidin-5-yl)oxy)-5-fluoro-N-isopropyl-N-((R)-tetrahydrofuran-3-yl)benzamide], with under 1 nM; and `CC(C)N(C(=O)c1cc(F)ccc1Oc1cncnc1N1CC2(CCN(C[C@@H]3CC[C@@H](NS(C)(=O)=O)CO3)CC2)C1)[C@H]1CCOC1` [Compound 173, 5-Fluoro-N-isopropyl-2-((4-(7-(((2S,5R)-5-(methylsulfonamido)tetrahydro-2H-pyran-2-yl)methyl)-2,7-diazaspiro[3.5]nonan-2-yl)pyrimidin-5-yl)oxy)-N-((S)-tetrahydrofuran-3-yl)benzamide], with under 1 nM; and `CC(C)N(C(=O)c1cc(F)ccc1Oc1cncnc1N1CC2(CCN(C[C@@H]3CC[C@@H](NS(=O)(=O)C(C)C)CO3)CC2)C1)[C@H]1CCOC1` [Compound 174, 5-Fluoro-N-isopropyl-2-((4-(7-(((2S,5R)-5-((1-methylethyl)sulfonamido)tetrahydro-2H-pyran-2-yl)methyl)-2,7-diazaspiro[3.5]nonan-2-yl)pyrimidin-5-yl)oxy)-N-((S)-tetrahydrofuran-3-yl)benzamide], with under 1 nM.
Take `CC(C)N(C(=O)c1cc(F)ccc1Oc1cncnc1N1CC2(CCN(C[C@@H]3CC[C@@H](NS(=O)(=O)N4CCCC4)CO3)CC2)C1)[C@H]1CCOC1` [Compound 178, 5-Fluoro-N-isopropyl-2-((4-(7-(((2S,5R)-5-(pyrrolidine-1-sulfonamido)tetrahydro-2H-pyran-2-yl)methyl)-2,7-diazaspiro[3.5]nonan-2-yl)pyrimidin-5-yl)oxy)-N-((S)-tetrahydrofuran-3-yl)benzamide]: the Ki is under 1 nM.
As for `CCN(C)S(=O)(=O)N[C@@H]1CC[C@@H](CN2CCC3(CC2)CN(c2ncncc2Oc2ccc(F)cc2C(=O)N(C(C)C)[C@H]2CCOC2)C3)OC1` [Compound 179, 2-((4-(7-(((2S,5R)-5-((N-Ethyl-N-methylsulfamoyl)amino)tetrahydro-2H-pyran-2-yl)methyl)-2,7-diazaspiro[3.5]nonan-2-yl)pyrimidin-5-yl)oxy)-5-fluoro-N-isopropyl-N-((S)-tetrahydrofuran-3-yl)benzamide], the Ki is under 1 nM.
Take `CCNS(=O)(=O)N[C@@H]1CC[C@@H](CN2CCC3(CC2)CN(c2ncncc2Oc2ccc(F)cc2C(=O)N(C(C)C)[C@H]2CCOC2)C3)OC1` [Compound 180, 2-((4-(7-(((2S,5R)-5-((N-Ethylsulfamoyl)amino)tetrahydro-2H-pyran-2-yl)methyl)-2,7-diazaspiro[3.5]nonan-2-yl)pyrimidin-5-yl)oxy)-5-fluoro-N-isopropyl-N-((S)-tetrahydrofuran-3-yl)benzamide]: the Ki was under 1 nM.
Then `CC(C)N(CCC#N)C(=O)c1cc(F)ccc1Oc1cncnc1N1CC2(CCN(C[C@@H]3CC[C@@H](NS(=O)(=O)N4CCC4)CO3)CC2)C1` [Compound 184, 2-((4-(7-(((2S,5R)-5-(Azetidine-1-sulfonamido)tetrahydro-2H-pyran-2-yl)methyl)-2,7-diazaspiro[3.5]nonan-2-yl)pyrimidin-5-yl)oxy)-N-(2-cyanoethyl)-5-fluoro-N-isopropylbenzamide], with under 1 nM; and `CCS(=O)(=O)N[C@@H]1CC[C@@H](CN2CCC3(CC2)CN(c2ncnnc2Oc2ccc(F)cc2C(=O)N(CC(F)F)C(C)C)C3)OC1` [Compound 185, N-(2,2-Difluoroethyl)-2-((5-(7-(((2S,5R)-5-(ethylsulfonamido)tetrahydro-2H-pyran-2-yl)methyl)-2,7-diazaspiro[3.5]nonan-2-yl)-1,2,4-triazin-6-yl)oxy)-5-fluoro-N-isopropylbenzamide], with under 1 nM.
Then `CC(C)N(CC(F)F)C(=O)c1cc(F)ccc1Oc1nncnc1N1CC2(CCN(C[C@@H]3CC[C@@H](NS(=O)(=O)C4CC4)CO3)CC2)C1` [Compound 186, 2-((5-(7-(((2S,5R)-5-(Cyclopropanesulfonamido)tetrahydro-2H-pyran-2-yl)methyl)-2,7-diazaspiro[3.5]nonan-2-yl)-1,2,4-triazin-6-yl)oxy)-N-(2,2-difluoroethyl)-5-fluoro-N-isopropylbenzamide], with under 1 nM; and `CC(C)N(CC(F)F)C(=O)c1cc(F)ccc1Oc1nncnc1N1CC2(CCN(C[C@@H]3CC[C@@H](NS(=O)(=O)c4cnn(C)c4)CO3)CC2)C1` [Compound 187, N-(2,2-Difluoroethyl)-5-fluoro-N-isopropyl-2-((5-(7-(((2S,5R)-5-((1-methyl-1H-pyrazole)-4-sulfonamido)tetrahydro-2H-pyran-2-yl)methyl)-2,7-diazaspiro[3.5]nonan-2-yl)-1,2,4-triazin-6-yl)oxy)benzamide], with under 1 nM; and `CCNS(=O)(=O)N[C@@H]1CC[C@@H](CN2CCC3(CC2)CN(c2ncnnc2Oc2ccc(F)cc2C(=O)N(CC(F)F)C(C)C)C3)OC1` [Compound 188, N-(2,2-Difluoroethyl)-2-((5-(7-(((2S,5R)-5-((N-ethylsulfamoyl)amino)tetrahydro-2H-pyran-2-yl)methyl)-2,7-diazaspiro[3.5]nonan-2-yl)-1,2,4-triazin-6-yl)oxy)-5-fluoro-N-isopropylbenzamide], with under 1 nM.
Then `CCS(=O)(=O)N[C@@H]1CC[C@@H](CN2CCC3(CC2)CN(c2ncnnc2Oc2ccc(F)cc2C(=O)N(CC(F)(F)F)C(C)C)C3)OC1` [Compound 190, 2-((5-(7-(((2S,5R)-5-(Ethylsulfonamido)tetrahydro-2H-pyran-2-yl)methyl)-2,7-diazaspiro[3.5]nonan-2-yl)-1,2,4-triazin-6-yl)oxy)-5-fluoro-N-isopropyl-N-(2,2,2-trifluoroethyl)benzamide], with under 1 nM.
